Experimental data reported in patent US10253002B2, “Compounds and methods of treating infections” (Neoculi Pty Ltd., priority 2013, dated 2019).
In brackets after ≈: the same amount, converted by molar mass. Read-outs that look alike come from different tables or passages of the source.

Columns and labels:
[1] = test system: Staphylococcus pseudintermedius isolates (MSSP and MRSP); experiment: MIC (CLSI), Example 6; assay type: cell-based
Description: Anti-staphylococcal compounds were then tested against all 23 isolates and minimum inhibitory concentrations (MIC) were determined according to standard protocols. After the MICs were determined, the minimum bactericidal concentrations were performed to determine if these compounds are bacteriostatic or bacteriocidal.

MRSA = experiment: Broth microdilution MIC, Example 7 (NCL812 and analogues); assay type: cell-based, Staphylococcus aureus
Summary of the method: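 Isolates were tested in duplicate, with a third run if replicates differed by more than one two-fold dilution; inoculum purity was checked on sheep blood agar.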

[2] = Staphylococcus pseudintermedius isolates

CC1(C)S[C@@H]2[C@H](NC(=O)[C@H](N)c3ccccc3)C(=O)N2[C@H]1C(=O)O [Ampicillin]
MIC50 [1, 2]: 32 µg/mL (≈ 91.6 µM)
MIC90 [1, 2]: 128 µg/mL (≈ 366 µM)
MIC range [1, 2]: 0.1 to 128 µg/mL
MIC ([1]; Staphylococcus pseudintermedius, Staphylococcus pseudintermedius isolates, read-out: MIC mode): 128 µg/mL (≈ 366 µM)
MIC ([1]; Staphylococcus pseudintermedius, isolate S5P5, read-out: MIC): 16 µg/mL (≈ 45.8 µM)
MIC ([1]; Staphylococcus pseudintermedius, isolate S6P6, read-out: MIC): 64 µg/mL (≈ 183 µM)
MIC ([1]; Staphylococcus pseudintermedius, isolate S9P9, read-out: MIC): 32 µg/mL (≈ 91.6 µM)
MIC ([1]; Staphylococcus pseudintermedius, isolate S10P10, read-out: MIC): 64 µg/mL (≈ 183 µM)
MIC ([1]; Staphylococcus pseudintermedius, isolate S12P12, read-out: MIC): 32 µg/mL (≈ 91.6 µM)
MIC ([1]; Staphylococcus pseudintermedius, isolate S13P13, read-out: MIC): 0.25 µg/mL (≈ 0.715 µM)
MIC ([1]; Staphylococcus pseudintermedius, isolate S14P14, read-out: MIC): 1 µg/mL (≈ 2.86 µM)
MIC ([1]; Staphylococcus pseudintermedius, isolate S15P15, read-out: MIC): 4 µg/mL (≈ 11.4 µM)
MIC ([1]; Staphylococcus pseudintermedius, isolate S16P16, read-out: MIC): 0.25 µg/mL (≈ 0.715 µM)
MIC ([1]; Staphylococcus pseudintermedius, isolate S17P17, read-out: MIC): 1 µg/mL (≈ 2.86 µM)
MIC ([1]; Staphylococcus pseudintermedius, isolate S18P18, read-out: MIC): 4 µg/mL (≈ 11.4 µM)
MIC ([1]; Staphylococcus pseudintermedius, isolate S19P19, read-out: MIC): 0.5 µg/mL (≈ 1.43 µM)
MIC ([1]; Staphylococcus pseudintermedius, isolate S20P20, read-out: MIC): 4 µg/mL (≈ 11.4 µM)
MIC ([1]; Staphylococcus pseudintermedius, isolate S21P21, read-out: MIC): 0.1 µg/mL (≈ 0.286 µM)
MIC ([1]; Staphylococcus pseudintermedius, isolate S22P22, read-out: MIC): 8 µg/mL (≈ 22.9 µM)
MIC ([1]; Staphylococcus pseudintermedius, isolate S23P23, read-out: MIC): 32 µg/mL (≈ 91.6 µM)
MIC ([1]; isolate S1P1): 128 µg/mL (≈ 366 µM)
MIC ([1]; isolate S3P3): 128 µg/mL (≈ 366 µM)
MIC ([1]; isolate S4P4): 128 µg/mL (≈ 366 µM)
MIC ([1]; isolate S7P7): 128 µg/mL (≈ 366 µM)
MIC ([1]; isolate S8P8): 128 µg/mL (≈ 366 µM)
MIC ([1]; isolate S11P11): 128 µg/mL (≈ 366 µM)
MIC (MRSA; MRSA 610, Phase I, 2nd): 128 µg/mL (≈ 366 µM)
MIC (MRSA; MRSA 713, Phase II, 1st): 128 µg/mL (≈ 366 µM)
MIC (MRSA; MRSA 713, Phase II, 2nd): 128 µg/mL (≈ 366 µM)
MIC (MRSA; MRSA 778, Phase II, 1st): 128 µg/mL (≈ 366 µM)
MIC (MRSA; MRSA 778, Phase II, 2nd): 128 µg/mL (≈ 366 µM)
MIC (MRSA; MRSA 823, Phase II, 1st): 128 µg/mL (≈ 366 µM)
MIC (MRSA; MRSA 823, Phase II, 2nd): 128 µg/mL (≈ 366 µM)
MIC (MRSA; MRSA 844, Phase I, 1st): 128 µg/mL (≈ 366 µM)
MIC (MRSA; MRSA 844, Phase I, 2nd): 128 µg/mL (≈ 366 µM)
MIC (MRSA; Staphylococcus aureus, MRSA, 24 h, read-out: MIC (μg/ml) at 24 hours, MRSA 1, isolate MRSA 1, 24 hours, 1st and 2nd replicate rows): > 128 µg/mL
MIC (MRSA; Staphylococcus aureus, MRSA, 24 h, read-out: MIC (μg/ml) at 24 hours, MRSA 2, isolate MRSA 2, 24 hours, 1st and 2nd replicate rows): 16 µg/mL (≈ 45.8 µM)
MIC (MRSA; Staphylococcus aureus, MRSA, MRSA 516, Phase I, 1st, read-out: MIC): 32 µg/mL (≈ 91.6 µM)
MIC (MRSA; Staphylococcus aureus, MRSA, MRSA 516, Phase I, 2nd, read-out: MIC): 32 µg/mL (≈ 91.6 µM)
MIC (MRSA; Staphylococcus aureus, MRSA, MRSA 516, Phase II, 1st, read-out: MIC): 32 µg/mL (≈ 91.6 µM)
MIC (MRSA; Staphylococcus aureus, MRSA, MRSA 516, Phase II, 2nd, read-out: MIC): 16 µg/mL (≈ 45.8 µM)
MIC (MRSA; Staphylococcus aureus, MRSA, MRSA 570, Phase I, 1st, read-out: MIC): > 128 µg/mL
MIC (MRSA; Staphylococcus aureus, MRSA, MRSA 570, Phase I, 2nd, read-out: MIC): > 128 µg/mL
MIC (MRSA; Staphylococcus aureus, MRSA, MRSA 570, Phase II, 1st, read-out: MIC): > 128 µg/mL
MIC (MRSA; Staphylococcus aureus, MRSA, MRSA 570, Phase II, 2nd, read-out: MIC): > 128 µg/mL
MIC (MRSA; Staphylococcus aureus, MRSA, MRSA 580, Phase I, 1st, read-out: MIC): > 128 µg/mL
MIC (MRSA; Staphylococcus aureus, MRSA, MRSA 580, Phase I, 2nd, read-out: MIC): > 128 µg/mL
MIC (MRSA; Staphylococcus aureus, MRSA, MRSA 580, Phase II, 1st, read-out: MIC): > 128 µg/mL
MIC (MRSA; Staphylococcus aureus, MRSA, MRSA 580, Phase II, 2nd, read-out: MIC): > 128 µg/mL
MIC (MRSA; Staphylococcus aureus, MRSA, MRSA 606, Phase I, 1st, read-out: MIC): 32 µg/mL (≈ 91.6 µM)
MIC (MRSA; Staphylococcus aureus, MRSA, MRSA 606, Phase I, 2nd, read-out: MIC): 32 µg/mL (≈ 91.6 µM)
MIC (MRSA; Staphylococcus aureus, MRSA, MRSA 606, Phase II, 1st, read-out: MIC): 32 µg/mL (≈ 91.6 µM)
MIC (MRSA; Staphylococcus aureus, MRSA, MRSA 606, Phase II, 2nd, read-out: MIC): 32 µg/mL (≈ 91.6 µM)
MIC (MRSA; Staphylococcus aureus, MRSA, MRSA 610, Phase II, 1st, read-out: MIC): 32 µg/mL (≈ 91.6 µM)
MIC (MRSA; Staphylococcus aureus, MRSA, MRSA 610, Phase II, 2nd, read-out: MIC): 32 µg/mL (≈ 91.6 µM)
MIC (MRSA; Staphylococcus aureus, MRSA, MRSA 616, Phase I, 1st, read-out: MIC): 64 µg/mL (≈ 183 µM)
MIC (MRSA; Staphylococcus aureus, MRSA, MRSA 616, Phase I, 2nd, read-out: MIC): 64 µg/mL (≈ 183 µM)
MIC (MRSA; Staphylococcus aureus, MRSA, MRSA 616, Phase II, 1st, read-out: MIC): 64 µg/mL (≈ 183 µM)
MIC (MRSA; Staphylococcus aureus, MRSA, MRSA 616, Phase II, 2nd, read-out: MIC): 64 µg/mL (≈ 183 µM)
MIC (MRSA; Staphylococcus aureus, MRSA, MRSA 622, Phase I, 1st, read-out: MIC): 64 µg/mL (≈ 183 µM)
MIC (MRSA; Staphylococcus aureus, MRSA, MRSA 622, Phase I, 2nd, read-out: MIC): 64 µg/mL (≈ 183 µM)
MIC (MRSA; Staphylococcus aureus, MRSA, MRSA 622, Phase II, 1st, read-out: MIC): 32 µg/mL (≈ 91.6 µM)
MIC (MRSA; Staphylococcus aureus, MRSA, MRSA 622, Phase II, 2nd, read-out: MIC): 32 µg/mL (≈ 91.6 µM)
MIC (MRSA; Staphylococcus aureus, MRSA, MRSA 698, Phase I, 1st, read-out: MIC): 64 µg/mL (≈ 183 µM)
MIC (MRSA; Staphylococcus aureus, MRSA, MRSA 698, Phase I, 2nd, read-out: MIC): 64 µg/mL (≈ 183 µM)
MIC (MRSA; Staphylococcus aureus, MRSA, MRSA 698, Phase II, 1st, read-out: MIC): 8 µg/mL (≈ 22.9 µM)
MIC (MRSA; Staphylococcus aureus, MRSA, MRSA 698, Phase II, 2nd, read-out: MIC): 8 µg/mL (≈ 22.9 µM)
MIC (MRSA; Staphylococcus aureus, MRSA, MRSA 713, Phase I, 1st, read-out: MIC): > 128 µg/mL
MIC (MRSA; Staphylococcus aureus, MRSA, MRSA 713, Phase I, 2nd, read-out: MIC): > 128 µg/mL
MIC (MRSA; Staphylococcus aureus, MRSA, MRSA 718, Phase I, 1st, read-out: MIC): > 128 µg/mL
MIC (MRSA; Staphylococcus aureus, MRSA, MRSA 718, Phase I, 2nd, read-out: MIC): > 128 µg/mL
MIC (MRSA; Staphylococcus aureus, MRSA, MRSA 718, Phase II, 1st, read-out: MIC): 64 µg/mL (≈ 183 µM)
MIC (MRSA; Staphylococcus aureus, MRSA, MRSA 718, Phase II, 2nd, read-out: MIC): 64 µg/mL (≈ 183 µM)
MIC (MRSA; Staphylococcus aureus, MRSA, MRSA 728, Phase I, 1st, read-out: MIC): 64 µg/mL (≈ 183 µM)
MIC (MRSA; Staphylococcus aureus, MRSA, MRSA 728, Phase I, 2nd, read-out: MIC): 64 µg/mL (≈ 183 µM)
MIC (MRSA; Staphylococcus aureus, MRSA, MRSA 728, Phase II, 1st, read-out: MIC): 32 µg/mL (≈ 91.6 µM)
MIC (MRSA; Staphylococcus aureus, MRSA, MRSA 728, Phase II, 2nd, read-out: MIC): 32 µg/mL (≈ 91.6 µM)
MIC (MRSA; Staphylococcus aureus, MRSA, MRSA 734, Phase I, 1st, read-out: MIC): > 128 µg/mL
MIC (MRSA; Staphylococcus aureus, MRSA, MRSA 734, Phase I, 2nd, read-out: MIC): > 128 µg/mL
MIC (MRSA; Staphylococcus aureus, MRSA, MRSA 734, Phase II, 1st, read-out: MIC): 64 µg/mL (≈ 183 µM)
MIC (MRSA; Staphylococcus aureus, MRSA, MRSA 734, Phase II, 2nd, read-out: MIC): 64 µg/mL (≈ 183 µM)
MIC (MRSA; Staphylococcus aureus, MRSA, MRSA 741, Phase I, 1st, read-out: MIC): 8 µg/mL (≈ 22.9 µM)
